Holding throughout (type): physicochemical
Data set [1] is described as follows: Solution stability of ^177Lu-C at −78° C., RCP by radio-HPLC. As to conditions: ^177Lu-C prepared using 2 mg GA. As for the experimental part: (§1) The integrity of a radiopharmaceutical is measured by the radiochemical purity (RCP) of the radiolabeled compound using ITLC or more preferably HPLC. The advantage of using HPLC is that radio-impurities caused by radiolytic degradation can be separated from the radiopharmaceutical under optimized chromatographic conditions. […] The radiopharmaceutical compositions of this invention are effective in maintaining the long-term stability of samples that have been frozen, thawed, and re-tested periodically for 7 days.
(§2) The initial RCP of a radiopharmaceutical is largely dependent on radiolabeling conditions such as pH, heating temperature and time. Once a radiopharmaceutical is prepared in high yield, the stability of the radiopharmaceutical composition is measured by the` RCP change of the radiopharmaceutical over a certain period of time. For comparison purposes, sodium gentisate or sodium ascorbate was often used as the reference since they have been used in various radiopharmaceutical formulations.
HPLC method 3 used a HP-1100 HPLC system with a UV/visible detector (λ=220 nm), an IN-US radio-detector, and a Zorbax C18 column (4.6 mm×250 mm, 80 Å pore size). The flow rate was 1 mL/min with a gradient mobile phase starting from 90% solvent A (0.025 M ammonium acetate buffer, pH 6.8) and 10% solvent B (acetonitrile) at 0 min to 88% solvent A and 12% solvent B at 18 min, followed by an isocratic wash using 40% of solvent A and 60% solvent B from 19 to 25 min.
The ITLC method used Gelman Sciences silica-gel ITLC paper strips and 1:1 mixture of acetone and saline as eluant. By this method, the radiolabeled compounds migrate to the solvent front while [^90Y]/^177Lu]colloid and [^90Y]/^177Lu]acetate remain at the origin.
(§3) The 0.5 M ammonium acetate buffer (pH 8.0) was first degassed under vacuum for 1-2 min. COMPOUND C and gentisic acid (sodium salt, GA) were dissolved in the degassed buffer to give a concentration of 100 μg/mL for COMPOUND C and 2 mg/mL for GA. The resulting solution was immediately degassed under vacuum for another 1-2 min. To a clean sealed 5 mL vial was added 1.0 mL of the degassed 0.5 M ammonium acetate buffer (pH 8.0) containing 100 μg COMPOUND C and 2 mg GA. The solution was degassed again under vacuum. Upon addition of ˜20 μL of ^177LuCl3 solution (˜20 mCi) in 0.05 N HCl, the reaction mixture was heated at 100° C. for 5 min. After cooling to room temperature, a sample of the resulting solution was analyzed by HPLC (Method 3, injection volume=5 μL) and ITLC. […] To the solution above was added 0.5 mL of sodium ascorbate solution (40 mg/mL in 0.5 M ammonium acetate buffer, pH=7.4). The resulting mixture was then kept in a dry-ice box (−78° C.) for 7 days. Samples were analyzed at t=0, 3 and 7 days.
as §3, with “COMPOUND” for “The 0.5 M ammonium acetate buffer (pH 8.0) was first degassed under vacuum for 1-2 min. COMPOUND”, “1.0 μL” for “1.0 mL”, “of 2,3,4-THBA” for “of sodium ascorbate”, “solution (20” for “solution (40”
COMPOUND C and gentisic acid (sodium salt, GA) were dissolved in the degassed buffer to give a concentration of 100 μg/mL for COMPOUND C and 2 mg/mL for GA. The resulting solution was immediately degassed under vacuum for another 1-2 min. […]

Assay in data set [2]: as above
The following applies: ^177Lu-C prepared using 2 mg GA, degassed, second stabilizer (20 mg AA, 20 mg DSA, 10 mg 2,3,4-THBA, 10 mg 3,4,5-THBA) added post-labeling.

Data set [3] in a line: Solution stability of ^90Y-B at −78° C., RCP by radio-HPLC. The following applies: ^90Y-B prepared with GA. As for the experimental part: as §1, §2
HPLC method 2 used a HP-1100 HPLC system with a UV/visible detector (λ=220 nm), an IN-US radio-detector, and a Zorbax C18 column (4.6 mm×250 mm, 80 Å pore size). The flow rate was 1 mL/min with a gradient mobile phase starting from 92% solvent A (0.025 M ammonium acetate buffer, pH 6.8) and 8% solvent B (acetonitrile) at 0 min to 90% solvent A and 10% solvent B at 18 min, followed by an isocratic wash using 40% of solvent A and 60% solvent B from 19 to 25 min.
The ITLC method used Gelman Sciences silica-gel ITLC paper strips and 1:1 mixture of acetone and saline as eluant. By this method, the radiolabeled compounds migrate to the solvent front while [^90Y]/^177Lu]colloid and [^90Y]/^177Lu]acetate remain at the origin. […]
The 0.5 M ammonium acetate buffer (pH 8.0) was first degassed under vacuum for 1-2 min. COMPOUND B and gentisic acid (sodium salt, GA) were dissolved in the degassed buffer to give a concentration of 100 μg/mL for COMPOUND B and 20 mg/mL for GA. The resulting solution was immediately degassed under vacuum for another 1-2 min. To a clean sealed 5 mL vial was added 1.0 mL of the degassed 0.5 M ammonium acetate buffer (pH 8.0) containing 100 μg COMPOUND B and 10 mg GA. The solution was degassed again under vacuum. Upon addition of ˜20 μL of ^90YCl3 solution (˜20 mCi) in 0.05 N HCl, the reaction mixture was heated at 100° C. for 5 min. After cooling to room temperature, a sample of the resulting solution was diluted 20-fold with saline containing gentisate (10 mg/mL), and was then analyzed by HPLC (Method 2, injection volume=1-2 μL) and ITLC. […] To the solution above was added 0.5 mL of sodium ascorbate solution (40 mg/mL in 0.5 M ammonium acetate buffer, pH=7.4). The resulting mixture was then kept in a dry-ice box (−78° C.) for 7 days. Samples were analyzed at t=0, 3 and 7 days.
The 0.5 M ammonium acetate buffer (pH 8.0) was first degassed under vacuum for 1-2 min. COMPOUND B and gentisic acid (sodium salt, GA) were dissolved in the degassed buffer to give a concentration of 100 μg/mL for COMPOUND B and 20 mg/mL for GA. The resulting solution was immediately degassed under vacuum for another 1-2 min. To a clean sealed 5 mL vial was added 1.0 mL of the degassed 0.5 M ammonium acetate buffer (pH 8.0) containing 100 μg COMPOUND B and 10 mg GA. The solution was degassed again under vacuum. Upon addition of ˜20 μL of ^90YCl3 solution (˜20 mCi) in 0.05 N HCl, the reaction mixture was heated at 100° C. for 5 min. After cooling to room temperature, a sample of the resulting solution was diluted 20-fold with saline containing gentisate (10 mg/mL), and was then analyzed by HPLC (Method 2, injection volume=1-2 μL) and ITLC. […] To the solution above was added 0.5 mL of 2,3,4-trihydroxybenzoic acid solution (20 mg/mL in 0.5 M ammonium acetate buffer, pH=6.5). The resulting mixture was then kept in a dry-ice box (−78° C.) for 7 days. Samples were analyzed at t=0, 3 and 7 days. […]

Where [4] appears, read: degassed, second stabilizer (20 mg AA, 20 mg DSA, 10 mg 2,3,4-THBA, 10 mg 3,4,5-THBA) added post-labeling.
Setting [5] is: second stabilizer added post-labeling, t = 0 to 7 days.
The mark [6] stands for this setting: degassed, second stabilizer (20 mg AA, 20 mg DSA, 10 mg 2,3,4-THBA, 10 mg HABA) added post-labeling.

Regarding `O=C1O[C@H]([C@@H](O)CO)C([O-])=C1O.[Na+]` [AA, sodium ascorbate, reference compound], in data set [1] (setting [4]), the “RCP (%) t = 0” value stood at 97.6%, the “RCP (%) t = 3 days” value was determined as 97.5% and the “RCP (%) t = 7 days” value was 93.0%. In addition, the “RCP (%) change” value in data set [1] (setting [5]) amounted to 4.6%. Moreover, the “RCP (%) t = 1 day” value in data set [2] came out at 97.7%. In data set [3] (setting [6]), the “RCP (%) t = 0” value was 95.0%, the “RCP (%) t = 3 days” value was found to be 93.9% and the “RCP (%) t = 7 days” value came out at 94.5%. Moreover, the “RCP (%) change” value in data set [3] (setting [5]) came out at 0.5%.
